Results: patent publication US20150368692A1, “ANALYSIS OF THE ESTERIFICATION LEVEL OF CEREBROSTEROL AS A TOOL FOR DIAGNOSIS AND/OR PROGNOSIS OF NEURODEGENERATION” (INBIOS S.R.L., priority 2013, published 2015)

Assays:
[1] = system: SH-SY5Y neuronal cells (neuroblastoma line), differentiated with retinoic acid; assay: Survival of differentiated SH-SY5Y neuronal cells (Crystal Violet staining, absorbance at 595 nm); assay type: cell-based, human; conditions: for cells survived after incubation: 5 h at 37° C./5% CO2 in DMEM and 0.5% HSA, then 16 h in fresh medium
Method: FIG. 2. Box A. Cells from the SH-SY5Y cell line were differentiated by incubation with 10 μM of retinoic acid in DMEM containing 0.5% foetal bovine serum, 1% Pen-Strep, 1% L-glutamine, 1% of a mixture of factors known as “N2 medium supplement”, essentially in accordance with a published procedure. The incubation was performed for 3 days at 37° C. in an atmosphere containing 5% CO2 (37° C./5% CO2). 7×10^3 cells were laid in each well of a microplate and then challenged with different concentrations of 24(S)OH—CNE and finally analysed in order to evaluate the survival of the cells, as described in Example 1. Each sample was analysed in three separate experiments. The data are expressed as means±SD (SD=standard deviation). Box B. 20 μM^3H-24(S)OH—CNE (300,000 dpm/mL) was incubated with 250 ng/mL purified LCAT and proteoliposomes containing 2 μM ApoA-I and 266 μM phosphatidylcholine (ApoA-I/PC) in DMEM with 0.5% HSA for various periods of time (from 1 to 6 h) at 37° C./5% CO2. After incubation, the esterified and non-esterified forms of oxysterol were extracted and analysed as described in Example 1. The level of esterification is indicated in terms of percentage of ^3H-24(S)OH-CE. Each sample was analysed in three separate experiments. The data are expressed as means±SD. Box C. Differentiated cells, as in the key of box A, were challenged with 20 μM ^3H-24(S)OH—CNE (300,000 dpm/mL) previously treated or untreated, as described for box B, with LCAT and ApoA-I/PC for 5 h. […] The culture medium was analysed in order to measure any unincorporated radioactive material, whereas the lysate was analysed in order to measure any incorporated radioactive material (expressed as % of the sum of incorporated radioactive material plus unincorporated radioactive material). […] Each sample was analysed in three separate experiments. The data are expressed as means±SD.
FIG. 3. […] Cellular survival after 5 h of incubation at 37° C./5% CO2, was evaluated as described in Example 1. Each sample was analysed in three separate experiments. The data are expressed as means±SD. […]

LCAT [2] = biological target: T1, LCAT (Homo sapiens, UniProt P04180); assay: Activity of LCAT in esterifying 3H-24(S)OH-CNE after oxidative treatment of the enzyme; assay type: biochemical; conditions: 1 mM SIN-1 as oxidant, 20 min pre-incubation, stopped with antioxidant mixture; 2 μM ApoA-I/266 μM phosphatidylcholine; control 19.11±0.49; P=2.4×10^−3
T1 sequence (P04180 25-440): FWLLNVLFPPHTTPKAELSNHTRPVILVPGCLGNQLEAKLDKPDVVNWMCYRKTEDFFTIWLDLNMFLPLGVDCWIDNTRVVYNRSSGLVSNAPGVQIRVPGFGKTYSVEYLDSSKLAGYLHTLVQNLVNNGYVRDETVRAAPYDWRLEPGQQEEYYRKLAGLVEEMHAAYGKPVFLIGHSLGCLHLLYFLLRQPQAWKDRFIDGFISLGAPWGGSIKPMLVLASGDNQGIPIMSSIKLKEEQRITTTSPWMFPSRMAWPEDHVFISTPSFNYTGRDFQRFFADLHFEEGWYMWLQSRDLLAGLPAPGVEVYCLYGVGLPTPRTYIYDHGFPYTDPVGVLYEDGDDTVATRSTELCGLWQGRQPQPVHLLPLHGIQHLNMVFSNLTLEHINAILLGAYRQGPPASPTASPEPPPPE
Method: FIG. 5. An outline of the process to which three samples have been subjected is shown at the top. At the bottom, the components of each sample are shown in a table. […] Purified LCAT (250 ng/mL) was pre-incubated and added to the culture medium for cellular incubation (containing ApoA-I/PC) as indicated in the table at the bottom. 1 mM Asc was used to separate the pre-incubation from the incubation in the processes to which the samples were subjected. Each sample was analysed in three separate experiments. The data, expressed as means±SD, were analysed using the Graph Pad Prism 3 program (Graph Pad Software; San Diego, Calif., USA) in order to determine the significance of the difference of B from A and C (P=10^−5).
The purified enzyme LCAT was treated with an oxidative stress system and was then incubated with 24(S)OH—CNE in order to evaluate the efficiency of esterification of this oxysterol. […] The measurement of the absorbance of ABTS^[…]+ (at 414 nm) […], at 30° C., oxidative species which effectively oxidise ABTS and that the addition of 1 mM Asc to the mixture prevents or blocks oxidation of the target. […]

LCAT [3] = biological target: T1, LCAT; assay: Esterification of 3H-24(S)OH-CNE by purified LCAT with ApoA-I/PC proteoliposomes (TLC, liquid scintillation); assay type: biochemical; conditions: 20 μM substrate, 250 ng/mL LCAT, proteoliposomes 2 μM ApoA-I/266 μM phosphatidylcholine, 5 h pre-incubation at 37° C./5% CO2
Method: FIG. 2. Box A. Cells from the SH-SY5Y cell line were differentiated by incubation with 10 μM of retinoic acid in DMEM containing 0.5% foetal bovine serum, 1% Pen-Strep, 1% L-glutamine, 1% of a mixture of factors known as “N2 medium supplement”, essentially in accordance with a published procedure. The incubation was performed for 3 days at 37° C. in an atmosphere containing 5% CO2 (37° C./5% CO2). 7×10^3 cells were laid in each well of a microplate and then challenged with different concentrations of 24(S)OH—CNE and finally analysed in order to evaluate the survival of the cells, as described in Example 1. Each sample was analysed in three separate experiments. The data are expressed as means±SD (SD=standard deviation). […] After incubation, the esterified and non-esterified forms of oxysterol were extracted and analysed as described in Example 1. […] Each sample was analysed in three separate experiments. The data are expressed as means±SD. […] The culture medium was analysed in order to measure any unincorporated radioactive material, whereas the lysate was analysed in order to measure any incorporated radioactive material (expressed as % of the sum of incorporated radioactive material plus unincorporated radioactive material). […] Each sample was analysed in three separate experiments. The data are expressed as means±SD. […]

[4] = system: SH-SY5Y neuronal cells (neuroblastoma line), differentiated with retinoic acid; assay: Incorporation of 3H-24(S)OH-CNE in differentiated SH-SY5Y cells and its esterification in the cells; assay type: cell-based, human; conditions: 4 h of incubation; for 3H-24(S)OH-CNE incorporated in the cultured cells: 20 μM
Method: FIG. 2. Box A. Cells from the SH-SY5Y cell line were differentiated by incubation with 10 μM of retinoic acid in DMEM containing 0.5% foetal bovine serum, 1% Pen-Strep, 1% L-glutamine, 1% of a mixture of factors known as “N2 medium supplement”, essentially in accordance with a published procedure. The incubation was performed for 3 days at 37° C. in an atmosphere containing 5% CO2 (37° C./5% CO2). 7×10^3 cells were laid in each well of a microplate and then challenged with different concentrations of 24(S)OH—CNE and finally analysed in order to evaluate the survival of the cells, as described in Example 1. Each sample was analysed in three separate experiments. The data are expressed as means±SD (SD=standard deviation). Box B. 20 μM^3H-24(S)OH—CNE (300,000 dpm/mL) was incubated with 250 ng/mL purified LCAT and proteoliposomes containing 2 μM ApoA-I and 266 μM phosphatidylcholine (ApoA-I/PC) in DMEM with 0.5% HSA for various periods of time (from 1 to 6 h) at 37° C./5% CO2. After incubation, the esterified and non-esterified forms of oxysterol were extracted and analysed as described in Example 1. The level of esterification is indicated in terms of percentage of ^3H-24(S)OH-CE. Each sample was analysed in three separate experiments. The data are expressed as means±SD. Box C. Differentiated cells, as in the key of box A, were challenged with 20 μM ^3H-24(S)OH—CNE (300,000 dpm/mL) previously treated or untreated, as described for box B, with LCAT and ApoA-I/PC for 5 h. After various incubation times (from 1 to 6 h), the cells were separated from the culture medium and lysed. The culture medium was analysed in order to measure any unincorporated radioactive material, whereas the lysate was analysed in order to measure any incorporated radioactive material (expressed as % of the sum of incorporated radioactive material plus unincorporated radioactive material). […] Each sample was analysed in three separate experiments. The data are expressed as means±SD.
In Step 1B, 20 μM of ^3H-24(S)OH—CNE (300,000 dpm/mL) was pre-incubated in culture medium (DMEM containing 0.5% HSA) in the presence or absence of 250 ng/mL LCAT, purified in accordance with a published procedure, and proteoliposomes containing ApoA-I and phosphatidylcholine (ApoA-I/PC), prepared in accordance with a published procedure omitting cholesterol. […] In particular, the amount of esterified ^3H-24(S)OH—CNE (that is to say ^3H-24(S)OH-CE) was measured as detailed hereinafter. […] The stationary phase regions harbouring ^3H-24(S)OH-CE (Rf=0.70-0.75) and ^3H-24(S)OH—CNE (Rf=0.25-0.35) were separately removed and then analysed for the radioactivity content thereof by liquid scintillation using the Packard TriCarb 2100TR counter (Global Medical Instrumentation, Ramsey, Mich., USA). […]

[5] = medium pre-incubated in the presence of LCAT and proteoliposomes
[6] = medium pre-incubated without LCAT and proteoliposomes

CC(C)[C@@H](O)CC[C@@H](C)[C@H]1CC[C@H]2[C@@H]3CC=C4C[C@@H](O)CC[C@]4(C)[C@H]3CC[C@]12C [24(S)OH—CNE, cerebrosterol]
cells survived after incubation ([1]; 10 μM 24(S)OH-CNE): 58% | cells survived after incubation ([1]; 20 μM 24(S)OH-CNE): 43%

[NH-]c1c[n+](N2CCOCC2)no1 [SIN-1, 3-morpholino-sidnonimine]
LCAT activity of esterification of 24(S)OH-CNE (mean±SD) (LCAT [2]): 12.77 ± 0.78 nmol/h/mL

[3H]C(C([3H])[C@@H](C)[C@H]1CC[C@H]2[C@@H]3CC=C4C[C@@H](O)CC[C@]4(C)[C@H]3CC[C@]12C)[C@H](O)C(C)C (stereo partly drawn) [^3H-24(S)OH—CNE]
3H-24(S)OH-CNE found esterified by LCAT (mean±SD) (LCAT [3]): 49.3±2.8% | percentage of 3H-24(S)OH-CE in the cells [4, 5]: approximately 50% | 3H-24(S)OH-CNE incorporated in the cultured cells [4, 5]: 6% | percentage of 3H-24(S)OH-CE in the cells [4, 6]: approximately 60% | 3H-24(S)OH-CNE incorporated in the cultured cells [4, 6]: 14%

B1: LCAT: lecithin-cholesterol acyltransferase, E.C. 2.3.1.43; purified enzyme, used at 250 ng/mL (protein, UniProt P04180 25-440, looked up)
Phosphatidylcholine-sterol …: FWLLNVLFPPHTTPKAELSNHTRPVILVPGCLGNQLEAKLDKPDVVNWMCYRKTEDFFTIWLDLNMFLPLGVDCWIDNTRVVYNRSSGLVSNAPGVQIRVPGFGKTYSVEYLDSSKLAGYLHTLVQNLVNNGYVRDETVRAAPYDWRLEPGQQEEYYRKLAGLVEEMHAAYGKPVFLIGHSLGCLHLLYFLLRQPQAWKDRFIDGFISLGAPWGGSIKPMLVLASGDNQGIPIMSSIKLKEEQRITTTSPWMFPSRMAWPEDHVFISTPSFNYTGRDFQRFFADLHFEEGWYMWLQSRDLLAGLPAPGVEVYCLYGVGLPTPRTYIYDHGFPYTDPVGVLYEDGDDTVATRSTELCGLWQGRQPQPVHLLPLHGIQHLNMVFSNLTLEHINAILLGAYRQGPPASPTASPEPPPPE
effect of LCAT treatment of the culture medium on the toxic effect of 24(S)OH-CNE on the cells ([1]; 20 μM 24(S)OH-CNE pre-incubated 5 h with LCAT and proteoliposomes, cells 5 h, then 16 h fresh medium, versus control treatment without LCAT): significantly reduced the toxic effect
